Source: PMC12292862 (Biomedicines, 2025)
In brackets after ≈: the same amount, converted by molar mass. Entries after “also recorded” stand apart in the source; their conditions may differ. Marks after values point to notes of the source that are not given here.

How the values were obtained:
[1] = Cell viability and cytotoxicity (MTT assay); assay type: cell-based, human; conditions: human, WI-38 human lung fibroblast cells, WI-38 cells; for IC50: 31.25 to 1000 µg/mL
Procedure: (§1) The cell lines were obtained from VACSERA—Holding Company for Biological Products and Vaccines, Cairo, Egypt. A 96-well tissue culture plate was seeded with 1 × 10^5 cells/mL (Wl-38 cells) from the human lung fibroblast cell line, adding 100 µL per well, and incubated at 37 °C with 5% CO2 for 24 h to allow the formation of a confluent monolayer. Following incubation, the growth medium was aspirated, and the cell monolayers were washed twice with wash medium to remove residual serum. Serial two-fold dilutions of the test compound were prepared in RPMI-1640 supplemented with 2% fetal bovine serum. Each dilution (100 µL) was added to the designated wells, while three wells served as negative controls and received only maintenance medium. The plate was incubated at 37 °C for an appropriate duration, during which cellular morphology was monitored for signs of cytotoxicity, including monolayer disruption, cell rounding, shrinkage, or granulation. MTT solution (5 mg/mL in PBS) was prepared, and 20 µL was added to each well. The plate was briefly agitated at 150 rpm for 5 min and then incubated for 4 h at 37 °C to allow viable cells to metabolize MTT into insoluble formazan crystals. After incubation, the supernatant was carefully removed, and 200 µL of DMSO was added to each well to solubilize the formazan. The plates were agitated again at 150 rpm for 5 min, and the absorbance was measured at 560 nm with background subtraction at 620 nm. The resulting optical density values were directly proportional to the number of viable cells.
(§2) The information was presented as the mean ± SD of the volume difference (mL) between the control and carrageenan-treated paws. One-way analysis of variance (ANOVA) was used to analyze the experimental groups’ data, and a Tukey post hoc test was then performed. p < 0.05 was considered significant. The IC50 values were calculated using Microsoft Excel by plotting a dose–response curve between compound concentration and cell viability percentage. A linear regression or logarithmic trendline was fitted to the data points, depending on the curve behavior.

[2] = tested on: WI-38 human lung fibroblast cells; assay: Cell viability and cytotoxicity (MTT assay); assay type: cell-based; conditions: WI-38 cells; morphology
Procedure: as §1, §2

[3] = tested on: carrageenan-induced rat paw edema; assay: Carrageenan-induced paw edema; assay type: in vivo; conditions: for inhibition of paw edema after 1 h / inhibition of paw edema after 2 h / inhibition of paw edema after 3 h: 200 mg/kg i.p.; for inhibition of paw edema after 1 h: 1 h after carrageenan; for inhibition of paw edema after 2 h: 2 h after carrageenan; for inhibition of paw edema after 3 h: 3 h after carrageenan; for inhibition of paw edema after 4 h: compounds 200 mg/kg i.p., indomethacin 10 mg/kg, 4 h after carrageenan
Text: Rats’ carrageenan-induced paw edema model was used to assess the novel synthesized drugs’ anti-inflammatory properties. A total of 180–190 g of male Wistar rats were used for the experiments. In the animal house at Sohag University in Sohag, Egypt, every animal was kept in careful laboratory conditions. After being weighed and divided into six groups at random, the animals are housed for a week to reduce stress and allow them to get used to the laboratory environment. The chemicals that were synthesized were administered intraperitoneally (i.p.) to rats at a dosage of 200 mg/kg. The control group received only vehicles. […] The rats were given a 0.2 mL sub-plantar injection of a 1% (w/v) suspension of carrageenan (made in PBS) in their right hind paw thirty minutes following the injection of synthesized compounds [33]. […] The % inhibition of paw edema was calculated by the following formula [34]:%Inhibition = ((Mean edema of control group − Mean edema of test compound)/(Mean edema of control group)) × 100.

CRP = assay: Serum CRP (ELISA) in carrageenan-injected rats; assay type: in vivo, rat; conditions: compounds 200 mg/kg i.p., indomethacin 10 mg/kg, mean ± SD
Procedure: (§3) The selective pro-inflammatory cytokines were measured quantitatively using rat-specific Enzyme-Linked Immunosorbent Assay (ELISA) kits from Thermo Scientific™ (Waltham, MA, USA) with CAT. No. ERCRP for CRP; from Elabscience with Cat. No. E-EL-R2856 for TNF-α and with Cat. No. E-EL-R0011 for IL-1α; from CUSABIO, Houston, TX, USA, with Cat. No. CSB-E04640r for IL-6; and from My BioSource Co, USA, with Cat. No. MBS825017 for IL-1β, with Cat. No. MBS753621 for rat cyclooxygenase 1, and with Cat. No. MBS266603 for rat cyclooxygenase 2. Meanwhile, an ovine COX inhibitor-screening in vitro assay (item number 760111) was obtained from Cayman Chemical (Ann Arbor, MI, USA). We purchased malondialdehyde (MDA), glutathione (GSH), and superoxide dismutase (SOD) detection kits from Nanjing Jiancheng Bio-Technology Co. Ltd. (Nanjing, China).
(§4) At the end of the experiments, the rats were subjected to anesthesia with chloroform and then sacrificed. Blood was obtained via heart puncture for biochemical analysis. Following the animals’ sacrifice, the paws were taken out, decalcified, and stored in a 10% formalin solution. To prepare the tissue samples, they were sliced into thicknesses of 5 µm. Hematoxylin and eosin dyes were used to create the histology slides, which were then examined using a photomicroscope (Meiji Techno®, Iruma, Japan) for pathological alterations. The presence of inflammation was documented. Protease/phosphatase inhibitor cocktail in cold phosphate-buffered saline (1:4) (pH 7, 0.01 mol/L) (Cat. No. PPC1010, Sigma-Aldrich) was used to homogenize each rat’s paw piece in a glass homogenizer. After filtering and centrifuging the resultant homogenate for five minutes at 5000× g, oxidative stress biomarkers like GSH, SOD, and MDA were measured. The trials were repeated three times.

IL-6 = assay: Serum IL-6 (ELISA) in carrageenan-injected rats; assay type: in vivo, rat; conditions: compounds 200 mg/kg i.p., indomethacin 10 mg/kg, mean ± SD
Procedure: as §3, §4

malondialdehyde (MDA) = assay: Paw tissue oxidative stress biomarker MDA; assay type: in vivo, rat; conditions: carrageenan rats, 200 mg/kg i.p.
Procedure: as §3, §4

glutathione (GSH) = assay: Paw tissue oxidative stress biomarker GSH; assay type: in vivo, rat; conditions: carrageenan rats, 200 mg/kg i.p., result in words
Procedure: as §3, §4

rat cyclooxygenase 2 = assay: COX-2 level in carrageenan-injected paw (ELISA); assay type: in vivo; conditions: compounds 200 mg/kg i.p., indomethacin 10 mg/kg, mean ± SD
Procedure: as §3, with “Meanwhile, an ovine COX inhibitor-screening in vitro assay (item number 760111) was obtained from Cayman Chemical (Ann Arbor, MI, USA).” left out
as §4

[4] = tested on: rat paw tissue dermal collagen; assay: Sirius Red staining of dermal collagen in paw tissue; assay type: in vivo; conditions: carrageenan-injected paw; compounds 200 mg/kg i.p., indomethacin 10 mg/kg

SMILES | viability at 31.25 µg/mL [1] [%] | IC50 [1] [µg/mL] | concentration above which cells shrink and lose fibroblast-like structure [2] | inhibition of paw edema after 1 h [3] [%] | inhibition of paw edema after 2 h [3] [%] | inhibition of paw edema after 3 h [3] [%] | inhibition of paw edema after 4 h [3] [%] | CRP (CRP) | IL-6 (IL-6) | MDA level (malondialdehyde (MDA)) | GSH concentration (glutathione (GSH)) | COX-2 level (rat cyclooxygenase 2) [ng/mL] | dermal collagen content and distribution (Sirius Red) [4] | IL-6 (IL-6; listed as C3) | MDA level (malondialdehyde (MDA); 200 mg/kg) | MDA level (malondialdehyde (MDA); listed as compound 3, 200 mg/kg) [nmol/g tissue]
NC1=NC2(CCCCCC2)n2nc(C(=O)Nc3ccc(S(N)(=O)=O)cc3)nc2N1 [Compound 1, 5′-Amino-N-(4-sulfamoylphenyl). -1′H-spiro[cycloheptane-1,7′-[1,2,4]triazolo[1,5-a][1,3,5] -triazine] -2′-carboxamide] | 99.9 | 363 (≈ 867 µM) | above 125 µg/mL | 53.6 | 65.74 | 78.52 | 96.31 | 4.19 ± 0.28 ^b ng/mL | 14.44 ± 0.26 ^b pg/mL | notable improvements | notable improvements | 3.44 ± 0.30 | normal collagen quantity and distribution; also recorded: normal in both quantity and organization | – | – | –
CC1(C)CC(=O)CC2(C1)N=C(N)Nc1nc(C(=O)Nc3ccc(S(N)(=O)=O)cc3)nn12 (centres unmarked) [Compound 2] | 99.9 | 328 (≈ 734 µM) | above 125 µg/mL | – | – | – | 72.08 | 3.02 ± 0.28 ^b ng/mL | 16.14 ± 0.16 ^b pg/mL | notable improvements | notable improvements | 4.10 ± 0.09 | normal dermal collagen; also recorded: normal appearance and distribution | – | – | –
NC1=NC2(c3ccccc3Cc3ccccc32)n2nc(C(=O)Nc3ccc(S(N)(=O)=O)cc3)nc2N1 [Compound 3] | 99.8 | 148 (≈ 296 µM) | above 62.5 µg/mL | 59.5 | 79.93 | 97.23 | 99.69 | 2.20 ± 0.36 ^b ng/mL | 11.39 ± 0.23 pg/mL | – | near-control values | 2.22 ± 0.06 | normal dermal collagenous fibers without any lesion; also recorded: complete restoration of normal dermal collagen | 11.39 ± 0.23 ^b pg/mL | close to normal | 35.71 ± 0.51
